Experimental data published in patent publication US6873914B2, “Methods and systems for analyzing complex biological systems” (Icoria, Inc., priority 2001, dated 2005).
“Also recorded” adds a separate entry of the source.

Experiments:
[1] = test system: Arabidopsis thaliana plants; assay: SOA1 phenotypic analysis of herbicide-treated Arabidopsis plants; type: in vivo; conditions: for Symptom Class: Arabidopsis sprayed with herbicide, phenotypes of the classes pictured in FIG. 12; for characteristic symptoms (morphological phenotype): in words; for leafCurling (Dev.) / leafTwisting (Dev.) / leafWidth (Dev.) / matureLeafAnthocyanins (Dev.) / matureLeafChlorosis (Dev.) / matureLeafNecrosis (Dev.) / newLeafAnthocyanins (Dev.) / newLeafChlorosis (Dev.) / newLeafNecrosis (Dev.) / pointedLeaves (Dev.): numeric value standardized to mock treated plants; for tMic (Dev.): score for time required to exhibit full range of symptoms at the MIC
[2] = test system: Magnaporthe grisea; type: cell-based
[3] = test system: Arabidopsis thaliana; assay: MOA1 biochemical (metabolite) profiling by LC-MS and GC-MS of treated Arabidopsis; conditions: after one hour
[4] = test system: Arabidopsis thaliana; assay: MOA1 gene expression profiling (22,000 gene array) of treated Arabidopsis; type: in vivo; conditions: for gene expression perturbations compared to the other treatments: MOA1, 1 hr; for No. of Lethal Genes Altered: regulated genes identified as essential for plant growth and development (internal database)
[5] = test system: Arabidopsis thaliana; assay: MOA1 phenotypic profiling of Arabidopsis sprayed with unknown and commercial herbicides; type: in vivo; conditions: in words
[6] = test system: Saccharomyces cerevisiae wild type strain BY4743; assay: AF1 metabolite analysis (GC-MS, LC-MS) of yeast cells treated with antifungal drugs; type: cell-based
[7] = test system: PSI, PROTOX; assay: PSI / PROTOX inhibition (unpublished data)

O=C(O)CNCP(=O)(O)O [Glyphosate]
Symptom Class [1]: 4
characteristic symptoms (morphological phenotype) [1]: anthocyanin accumulation in the older leaves accompanied by chlorosis of the newly emerging leaves
leafCurling (Dev.) [1]: 0
leafTwisting (Dev.) [1]: 0
leafWidth (Dev.) [1]: 0
matureLeafAnthocyanins (Dev.) [1]: 3
matureLeafChlorosis (Dev.) [1]: 1
matureLeafNecrosis (Dev.) [1]: 3
newLeafAnthocyanins (Dev.) [1]: 1
newLeafChlorosis (Dev.) [1]: 2
newLeafNecrosis (Dev.) [1]: 0
pointedLeaves (Dev.) [1]: 1
tMic (Dev.) [1]: 2
M. grisea growth with nitrate, nitrite, or glutamate as the sole nitrogen source [2]: inhibited growth
Growth of M. grisea with ammonium or glutamine as nitrogen source, Tier 4 ([2]; 250 μg/ml): Little growth defect
M. grisea growth results for Tiers 3 and 4 ([2]; 250 μg/ml): nearly identical as compared to Unknown 4
M. grisea growth inhibition, effect of aromatic amino acids in the media ([2]; 1.0 mg/ml): remediated by inclusion of aromatic amino acids
tyrosine (downstream metabolite) relative to the control [3]: decreased

COC(=O)NS(=O)(=O)c1ccc(N)cc1 [Asulam]
gene expression perturbations compared to the other treatments [4]: fewest gene expression perturbations
No. of Lethal Genes Altered [4]: 5

CC(C)N1C(=O)c2ccccc2NS1(=O)=O [Bentazon]
characteristic symptoms (morphological phenotype) [1]: rapid and widespread leaf necrosis

Nc1nc[nH]n1 [Amitrole]
characteristic symptoms (morphological phenotype) [1]: leaf bleaching and leaf enlargement
phenotype / hierarchical cluster analysis of the eleven phenotypic characteristics [5]: exhibited chlorosis and not true bleaching

c1cc[n+]2c(c1)-c1cccc[n+]1CC2 [Diquat]
Symptom Class [1]: 7
characteristic symptoms (morphological phenotype) [1]: rapid and widespread leaf necrosis
leafCurling (Dev.) [1]: 2
leafTwisting (Dev.) [1]: 0
leafWidth (Dev.) [1]: −2
matureLeafAnthocyanins (Dev.) [1]: 0
matureLeafChlorosis (Dev.) [1]: 1
matureLeafNecrosis (Dev.) [1]: 4
newLeafAnthocyanins (Dev.) [1]: 0
newLeafChlorosis (Dev.) [1]: 1
newLeafNecrosis (Dev.) [1]: 4
pointedLeaves (Dev.) [1]: 1
tMic (Dev.) [1]: 2

CC[C@@H]([C@H](C)O)n1ncn(-c2ccc(N3CCN(c4ccc(OC[C@@H]5CO[C@@](Cn6cncn6)(c6ccc(F)cc6F)C5)cc4)CC3)cc2)c1=O [Posaconazoie]
Fold Change ([6]; metabolite luteolin, platform LC): 0

CCc1cccc(C)c1N(C(=O)CCl)C(C)COC (centres unmarked) [Metolachlor]
PSI or PROTOX inhibitor [7]: neither a PSI nor a PROTOX inhibitor

COC(=O)c1cc(Oc2ccc(Cl)cc2Cl)ccc1[N+](=O)[O-] [Bifenox]
characteristic symptoms (morphological phenotype) [1]: Necrotic leaf flecks

C[n+]1ccc(-c2cc[n+](C)cc2)cc1 [Paraquat]
Symptom Class [1]: 7
characteristic symptoms (morphological phenotype) [1]: rapid and widespread leaf necrosis

O=C(O)COc1ccc(Cl)cc1Cl [2,4-D]
Symptom Class [1]: 5
leafCurling (Dev.) [1]: 1
leafTwisting (Dev.) [1]: 2
leafWidth (Dev.) [1]: −1
matureLeafAnthocyanins (Dev.) [1]: 1
matureLeafChlorosis (Dev.) [1]: 2
matureLeafNecrosis (Dev.) [1]: 0
newLeafAnthocyanins (Dev.) [1]: 0
newLeafChlorosis (Dev.) [1]: 1
newLeafNecrosis (Dev.) [1]: 0
pointedLeaves (Dev.) [1]: 0
tMic (Dev.) [1]: 2

CC(C)C1(C)N=C(c2ncccc2C(=O)O)NC1=O (centres unmarked) [Imazapyr]
characteristic symptoms (morphological phenotype) [1]: anthocyanin accumulation in the older leaves accompanied by chlorosis of the newly emerging leaves

CC[C@@H]([C@H](C)O)n1ncn(-c2ccc(N3CCN(c4ccc(OC[C@@H]5CO[C@@](Cn6cncn6)(c6ccc(F)cc6F)C5)cc4)CC3)cc2)c1=O [Posaconazole]
Fold Change ([6]; metabolite anthranilic acid, platform nLC): 0
Fold Change ([6]; metabolite anthranilic acid, platform pLC): 0
Fold Change ([6]; metabolite biotin, platform LC): 0

OC(Cn1cncn1)(Cn1cncn1)c1ccc(F)cc1F [Fluconazole]
Fold Change: abscisic acid ([6]; LC): 0
Fold Change: adenosine ([6]; LC): 0

CCNc1nc(Cl)nc(NC(C)C)n1 [Atrazine]
characteristic symptoms (morphological phenotype) [1]: rapid and widespread leaf necrosis

O=C(O)c1ccccc1C(=O)Nc1cccc2ccccc12 [Naptalam]
gene expression perturbations compared to the other treatments [4]: fewest gene expression perturbations
No. of Lethal Genes Altered [4]: 3

CCSC(=O)N(CC(C)C)CC(C)C [Butylate]
phenotype / hierarchical cluster analysis of the eleven phenotypic characteristics [5]: neither showed a strong herbicidal phenotype

CCc1cnc(C2=NC(C)(C(C)C)C(=O)N2)c(C(=O)O)c1 (centres unmarked) [Imazethapyr]
characteristic symptoms (morphological phenotype) [1]: anthocyanin accumulation in the older leaves accompanied by chlorosis of the newly emerging leaves

CC(C)OC(=O)Nc1cccc(Cl)c1 [Chloropropham]
phenotype / hierarchical cluster analysis of the eleven phenotypic characteristics [5]: neither showed a strong herbicidal phenotype

O=C(O)c1cc(Oc2ccc(C(F)(F)F)cc2Cl)ccc1[N+](=O)[O-] [Acifluorfen]
characteristic symptoms (morphological phenotype) [1]: Necrotic leaf flecks

CC[C@@H]([C@H](C)O)n1ncn(-c2ccc(N3CCN(c4ccc(OC[C@@H]5CO[C@@](Cn6cncn6)(c6ccc(F)cc6F)C5)cc4)CC3)cc2)c1=O [Posaconazote]
Fold Change, porphobilinogen ([6]; detected metabolite, platform nLC, p-Value 1): 0

CP(=O)(O)CCC(N)C(=O)O (centres unmarked) [Glufosinate]
Symptom Class [1]: 3
characteristic symptoms (morphological phenotype) [1]: Chlorosis and leaf curling
leafCurling (Dev.) [1]: 2
leafTwisting (Dev.) [1]: 1
leafWidth (Dev.) [1]: −2
matureLeafAnthocyanins (Dev.) [1]: 0
matureLeafChlorosis (Dev.) [1]: 3
matureLeafNecrosis (Dev.) [1]: 0
newLeafAnthocyanins (Dev.) [1]: 0
newLeafChlorosis (Dev.) [1]: 3
newLeafNecrosis (Dev.) [1]: 0
pointedLeaves (Dev.) [1]: 1
tMic (Dev.) [1]: 1
No. of Lethal Genes Altered [4]: 10

CSc1nnc(C(C)(C)C)c(=O)n1N [Metribuzin]
characteristic symptoms (morphological phenotype) [1]: rapid and widespread leaf necrosis

COc1nc(C)nc(NC(=O)NS(=O)(=O)c2ccccc2Cl)n1 [Chlorsulfuron]
characteristic symptoms (morphological phenotype) [1]: anthocyanin accumulation in the older leaves accompanied by chlorosis of the newly emerging leaves
No. of Lethal Genes Altered [4]: 8

CN(C)C(=O)Nc1ccc(Cl)c(Cl)c1 [Diuron]
Symptom Class [1]: 7
characteristic symptoms (morphological phenotype) [1]: rapid and widespread leaf necrosis
leafCurling (Dev.) [1]: 1
leafTwisting (Dev.) [1]: 0
leafWidth (Dev.) [1]: −2
matureLeafAnthocyanins (Dev.) [1]: 0
matureLeafChlorosis (Dev.) [1]: 2
matureLeafNecrosis (Dev.) [1]: 4
newLeafAnthocyanins (Dev.) [1]: 0
newLeafChlorosis (Dev.) [1]: 2
newLeafNecrosis (Dev.) [1]: 4
pointedLeaves (Dev.) [1]: 1
tMic (Dev.) [1]: 1

CS(=O)(=O)c1cc(C(F)(F)F)ccc1C(=O)c1cnoc1C1CC1 [Isoxaflutole]
No. of Lethal Genes Altered [4]: 15
M. grisea growth in minimal media ([2]; concentration insufficient to inhibit growth): unaffected
M. grisea growth in minimal plus tyrosine (sole nitrogen source) media ([2]; concentration insufficient to inhibit growth (sub-inhibitory)): inhibited
tyrosine and phenylalanine relative to the control [3]: up-regulated; also recorded: began to accumulate
